Experiments:
[1] = molecular target: CDK4 (Homo sapiens, UniProt P11802); assay: FRET-based LANCE Ultra in vitro enzymatic kinase assay, CDK4; type: biochemical
Method: IC50 values for CDK inhibitors were determined using the fluorescence resonance energy transfer (FRET)-based LANCE Ultra KinaSelect Ser/Thr kit (Perkin Elmer). Kinase activity and inhibition were measured according to the manufacturer’s instructions and as previously described. […] FRET signals were recorded in a time-resolved manner in a Perkin Elmer EnVision reader. Purified cyclin-kinase pairs were obtained from the following suppliers: Carna Biosciences (CDK1-Cyclin B1, CDK6-Cyclin D3, CDK7-Cyclin H-MAT1), ProQinase (CDK2-Cyclin A) and Invitrogen (CDK9-Cyclin T1).
Data were analyzed with GraphPad Prism 7 software. Differences were assessed by unpaired or paired Student t tests if not indicated otherwise. Two-sided probabilities of less than 0.05 were considered significant. Nonlinear regression sigmoidal dose-response curve fit was used to determine the IC50 values and to generate graphs.

[2] = system: TCL1 CLL cells (CD5+CD19+), T and B lymphocytes; assay: TCL1 transgenic CLL mice, oral LDC526, longitudinal blood and final spleen analysis; type: in vivo, mouse
Excerpt: Another widely used preclinical CLL model are TCL1 transgenic mice. The TCL1 transgenics represent a constitutive CLL model not involving the adoptive transfer of cells. This model mirrors the natural course of human IgVH-unmutated CLL including its disease progression. In addition, this model has also been widely used by others to test novel therapeutic molecules. […] Consecutive blood sampling allowed us to carry out a longitudinal study in individual TCL1 and control mice. For this, we chose a cohort of TCL1 and littermate control mice, which were 9-12 months old (Figure 5A). We chose TCL1 transgenics with high peripheral CLL cell (CD19+CD5+) counts (14.6±7.4/nl, mean±SEM). Given the presumably high leukemic burden in these aged TCL1 mice and the reduced general condition of some NSG mice receiving 75 mg/kg for 5 days we decided to dose TCL1 mice with 50 mg/kg daily for two consecutive days (Figure 5A). As the experiment was longitudinally designed and there was no effect expected of administering carrier to wild-type control mice we omitted this control group and established three experimental groups (Figure 5A). In order to minimize stress by collecting blood specimens we sampled blood three times, 8 days apart (days -5, +3 and +11; Figure 5A). Compared to blood smears prepared before commencing LDC526 treatment a marked decrease of peripheral blood leukocytes and CLL cells was observed two days post the last LDC526 administration to TCL1 transgenic mice (Figure 5B). In contrast to the carrier control treated TCL1 mice, white blood cell counts (WBC) dropped in LDC526-treated wild-type and TCL1 mice (Figure 5C). In comparison to wild-type control mice, where WBC dropped to 34% of baseline values, the WBC decrease in TCL1 mice was more dramatic dropping to 8% of baseline values (Figure 5D).
All mice were bred and housed at the University Hospital Essen animal care facility. TCL1 mice were back-crossed more than 6 generations into the C57BL/6 background and were genotyped as previously described. Age-matched TCL1 wild-type littermates served as controls. Peripheral blood counts were determined with the VetABC analyzer (scil, Viernheim, Germany). Blood smears were Wright-Giemsa stained. For the human CLL xenograft experiments eight to 14-week-old NOD.Cg-Prkdc^scid Il2rg^tm1Wjl/SzJ (NOD/scid/γc^null; NSG) mice were sublethally irradiated (3.25 Gy) 24 hours before transplantation. Freshly isolated 1.0 x 10^8 PBMC suspended in 0.2 ml of RPMI were intravenously transplanted as previously described. For oral administration, LDC526 was diluted in polyethelene glycol (PEG Mn 400, Sigma-Aldrich) and administerd by gavage. Animal experiments were performed in accordance with institutional guidelines approved by the Animal Care Committee of the University Hospital Essen.
LDC526 [(3-((4-(4-fluoro-2-methoxyphenyl)-1,3,5-triazin-2-yl)amino)phenyl)methane-sulfonamide, molecular weight 389,41 g/mol, Figure 1A] was provided as powder (LDC526 synthesis, supplementary methods). For oral gavage administration LDC526 was diluted in polyethelene glycol (PEG Mn 400, Sigma-Aldrich, Munich, Germany) followed by sonication for 3 x 5 minutes with intermediate mixing.
Apoptosis and cell death were determined by using Annexin V (BD Biosciences, Heidelberg, Germany) and 4′,6-Diamidin-2-phenylindol (DAPI, Sigma-Aldrich) staining. Erythrocytes of murine peripheral blood samples were lysed with NH4Cl hypotonic solution. Single cell suspensions of murine spleens were prepared as previously described. Murine cells were stained with antibodies directed against murine CD3 (clone 145-2C11), CD5 (53-7.3) and CD19 (1D3), respectively. For the detection of human cells in NSG spleens antibodies against human CD3 (clone SK7), CD4 (SK3), CD5 (L17F12), CD8 (SK1), CD19 (J3-119 or SJ25C1) and CD45 (2D1) were used (purchased from BD Bioscience, Biolegend and Beckman Coulter). […]

Sequence of CDK4 (P11802 whole entry): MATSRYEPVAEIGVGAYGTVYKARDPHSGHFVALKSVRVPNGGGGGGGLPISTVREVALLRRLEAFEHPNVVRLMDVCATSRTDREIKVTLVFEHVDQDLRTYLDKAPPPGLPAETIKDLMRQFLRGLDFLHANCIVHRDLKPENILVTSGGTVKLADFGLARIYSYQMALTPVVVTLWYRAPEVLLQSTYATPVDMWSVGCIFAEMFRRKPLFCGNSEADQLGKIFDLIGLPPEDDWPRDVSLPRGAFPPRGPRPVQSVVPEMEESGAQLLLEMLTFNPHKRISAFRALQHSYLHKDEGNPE
Sequence of CDK4 (P24385 whole entry partner): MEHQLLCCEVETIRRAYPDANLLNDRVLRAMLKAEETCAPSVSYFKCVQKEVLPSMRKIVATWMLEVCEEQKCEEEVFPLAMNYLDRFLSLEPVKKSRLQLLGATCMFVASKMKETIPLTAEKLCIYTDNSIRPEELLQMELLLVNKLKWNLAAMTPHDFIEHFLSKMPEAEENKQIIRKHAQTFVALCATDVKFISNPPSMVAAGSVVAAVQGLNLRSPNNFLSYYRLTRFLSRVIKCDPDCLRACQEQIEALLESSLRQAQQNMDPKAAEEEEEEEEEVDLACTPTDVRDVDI

With `COc1cc(F)ccc1-c1ncnc(Nc2cccc(CS(N)(=O)=O)c2)n1` [LDC526, (3-((4-(4-fluoro-2-methoxyphenyl)-1,3,5-triazin-2-yl)amino)phenyl)methane-sulfonamide] the “selectivity versus CDK9 compared to CDK4” value [1] was 291 fold, the “decrease of peripheral blood CLL counts of individual TCL1 mice” value ([2]; 50 mg/kg for two days) was “at least 8 fold” and the “decrease of TCL1 blood T cells” value ([2]; 50 mg/kg for two days, day +3) was 6 fold. For the same compound, the “decrease of mean TCL1 blood CLL numbers compared to baseline” value ([2]; 50 mg/kg for two days, day +3) was 16 fold, the hemoglobin counts ([2]; LDC526-treated mice, longitudinal) was “did not change significantly” and the “increase of peripheral blood CLL numbers on day +11 compared to day +3” value ([2]; TCL1 mice) was 29%. For the same compound, the “mean platelet concentrations, percent of baseline levels” value ([2]; TCL1 mice after LDC526 treatment) was at least 50%, the “WBC, percent of baseline values” ([2]; TCL1 mice, 50 mg/kg daily for two days, day +3) was 8% and the “drop of mean WBC” value ([2]; TCL1 mice, 50 mg/kg for two days) was 12 fold. For the same compound, the “non-malignant B cell numbers, percent of baseline values” ([2]; TCL1 mice, peripheral blood) was 1.4%, the “peripheral blood TCL1 CLL cells, percent of baseline levels” value ([2]; day +3) was 6.4% and the “splenic weights versus carrier control TCL1 mice” value ([2]; day +11) was “significantly lower”.

From article PMC5995184, “Potent anti-leukemic activity of a specific cyclin-dependent kinase 9 inhibitor in mouse models of chronic lymphocytic leukemia” (Oncotarget, 2018)
